According to patent publication EP4741395A1, “NOVEL COMPOUND SENSITIVE TO NITROGEN MONOXIDE AND PHARMACEUTICAL COMPOSITION COMPRISING SAME” (Omniamed Co. Ltd, priority 2023, dated 2025):

How the values were obtained:
Raw 264.7 cell line = test: NO scavenging activity in LPS-treated immune cells (Griess reagent); type: cell-based; settings: 24 hours; for activity at 10 µM: Mus musculus, RAW264.7, Raw 264.7, LPS 500 ng/mL, read-out: NO Scavenging Activity (%) (Mean±SD)
Experimental: Raw 264.7 cell line was seeded in a 48-well plate at a density of 8×10^4 cells/well, and cultured at 37°C in a DMEM medium including 10% FBS, 100 U/mL of penicillin and 100 µg/mL of streptomycin.
The medium was cultured overnight, and then replaced with a fresh medium including 10 µM of the pharmaceutical composition sensitive to nitrogen monoxide including the compound of each of Examples 1 to 30 and 500 ng/mL of LPS, and the fresh medium was cultured again for another 24 hours.
Lastly, in order to measure the amount of NO produced, the amount of NO2^- present in the cell culture medium was measured using a Griess reagent (sulfanilamide, N-1-naphthylethylenediamine dihydrochloride). Specifically, 100 µL of a Griess reagent was mixed with a mixture solution of 50 µL of the cell culture medium and 50 µL of PBS. The mixture solution was reacted for 10 minutes in a well plate, and absorbance thereof at 540 nm was measured.

[1] = DAF-2 assay of NO scavenging activity (NO donor SNAP); type: biochemical; settings: DAF-2 10 µM, SNAP 100 µM, PBS, 3 hours, 37°C
Experimental: NO scavenging activity of the pharmaceutical composition sensitive to nitrogen monoxide including the compound according to each of Examples 1 to 22, 29 to 31, and 33 to 35 was evaluated through a DAF-2 assay.
Specifically, a reagent stock solution was made using DMSO (dimethyl sulfoxide) in order to prepare 5 mM of DAF-2, 100 mM of SNAP and 5 mM of the compound synthesized in each of the Examples, and for the reaction, the solution was added to a PBS (phosphate buffered saline) solution so that DAF-2, SNAP and the compound had final concentrations of 10 µM, 100 µM and the concentration of Table 1, respectively, followed by a reaction for 3 hours in a 37°C incubator.

[2] = DAF-2 assay of NO scavenging activity without and with H2O2 (ROS); type: biochemical; settings: SNAP 100 µM, DAF-2 10 µM, 3 hours, 37°C; for NO Scavenging Activity (%) (Mean±SD) With H2O2: H2O2 1 mM
Experimental: The pharmaceutical composition sensitive to nitrogen monoxide including the compound according to each of Examples 23 to 28 and 32 may have scavenging activity for reactive oxygen species (ROS). NO scavenging activity of the pharmaceutical composition was evaluated through a DAF-2 assay.
Specifically, to a 100 µM solution of SNAP, the compound synthesized in each of the Examples was added at a concentration of the following Table 2, and reacted. Then 10 µM of DAF-2 was added thereto, followed by a reaction for 3 hours in a 37°C incubator.
Additionally, a stock solution of H2O2 (10 M) was added to the reaction solution so that SNAP and H2O2 had final concentrations of 100 µM and 1 mM, respectively. Then, the compound synthesized in each of the Examples was added thereto at a concentration of the following Table 11, followed by a reaction in the same manner, and NO scavenging activity was calculated by Equation 1.

Compound: COc1ccc(NC(=O)n2ccc3c(N(C)[C@H]4CN(C(=O)CC#N)CC[C@H]4C)ncnc32)c(N)c1 [Example 6, N-(2-amino-4-methoxyphenyl)-4-(((3R,4R)-1-(2-cyanoacetyl)-4-methylpiperidin-3-yl)(methyl)amino)-7H-pyrrolo[2,3-d]pyrimidine-7-carboxamide]
- activity at 10 µM (Raw 264.7 cell line): 68.5 ± 0.11%

Compound: COc1ccc(N)c(NC(=O)n2ccc3c(N(C)[C@H]4CN(C(=O)CC#N)CC[C@H]4C)ncnc32)c1 [Example 7, N-(2-amino-5-methoxyphenyl)-4-(((3R,4R)-1-(2-cyanoacetyl)-4-methylpiperidin-3-yl)(methyl)amino)-7H-pyrrolo[2,3-d]pyrimidine-7-carboxamide]
- activity at 10 µM (Raw 264.7 cell line): 88.2 ± 0.06%

Compound: C[C@@H]1CCN(C(=O)CC#N)C[C@@H]1N(C)c1ncnc2c1ccn2C(=O)Nc1ccc(O)cc1N [Example 8, N-(2-amino-4-hydroxyphenyl)-4-(((3R,4R)-1-(2-cyanoacetyl)-4-methylpiperidin-3-yl)(methyl)amino)-7H-pyrrolo[2,3-d]pyrimidine-7-carboxamide]
- activity at 10 µM (Raw 264.7 cell line): 72.6 ± 0.31%

Compound: C[C@@H]1CCN(C(=O)CC#N)C[C@@H]1N(C)c1ncnc2c1ccn2C(=O)Nc1cc(O)ccc1N [Example 9, N-(2-amino-5-hydroxyphenyl)-4-(((3R,4R)-1-(2-cyanoacetyl)-4-methylpiperidin-3-yl)(methyl)amino)-7H-pyrrolo[2,3-d]pyrimidine-7-carboxamide]
- activity at 10 µM (Raw 264.7 cell line): 78.9 ± 0.21%

Compound: C[C@@H]1CCN(C(=O)CC#N)C[C@@H]1N(C)c1ncnc2c1ccn2C(=O)N(C)CCN(C)C(=O)Nc1ccccc1N [Example 14, N-(2-(3-(2-aminophenyl)-1-methylureido)ethyl)-4-(((3R,4R)-1-(2-cyanoacetyl)-4-methylpiperidin-3-yl)(methyl)amino)-N-methyl-7H-pyrrolo[2,3-d]pyrimidine-7-carboxamide]
- activity at 10 µM (Raw 264.7 cell line): 46 ± 2.52%

Compound: COc1ccc(NC(=O)N(C)CCN(C)C(=O)n2ccc3c(N(C)[C@H]4CN(C(=O)CC#N)CC[C@H]4C)ncnc32)c(N)c1 [Example 17, N-(2-(3-(2-amino-4-methoxyphenyl)-1-methylureido)ethyl)-4-(((3R,4R)-1-(2-cyanoacetyl)-4-methylpiperidin-3-yl) (methyl)amino)-N-methyl-7H-pyrrolo[2,3-d]pyrimidine-7-carboxamide]
- activity at 10 µM (Raw 264.7 cell line): 29.6 ± 2.95%

Compound: C[C@@H]1CCN(C(=O)CC#N)C[C@@H]1N(C)c1ncnc2c1ccn2C(=O)N(C)CCN(C)C(=O)Nc1ccc(O)cc1N [Example 19, N-(2-(3-(2-amino-4-hydroxyphenyl)-1-methylureido)ethyl)-4-(((3R,4R)-1-(2-cyanoacetyl)-4-methylpiperidin-3-yl) (methyl)amino)-N-methyl-7H-pyrrolo[2,3-d]pyrimidine-7-carboxamide]
- activity at 10 µM (Raw 264.7 cell line): 54.1 ± 2.51%

Compound: CC[C@@H]1CN(C(=O)NCC(F)(F)F)C[C@@H]1c1cnc2cnc3c(ccn3C(=O)Nc3cc4c(cc3N)n(C)c(=O)n4C)n12 [Example 31, N-(6-amino-1,3-dimethyl-2-oxo-2,3-dihydro-1H-benzo[d]imidazol-5-yl)-8-((3R,4S)-4-ethyl-1-((2,2,2-trifluoroethyl)carbamoyl)pyrrolidin-3-yl)-3H-imidazo[1,2-a]pyrrolo[2,3-e]pyrazine-3-carboxamide]
- NO Scavenging Activity (%) (Mean±SD) ([1]; compound 1 µM): 79.61 ±3.60%
- NO Scavenging Activity (%) (Mean±SD) ([1]; compound 5 µM): 90.34 ±0.98%
- NO Scavenging Activity (%) (Mean±SD) ([1]; compound 10 µM): 92.21 ±0.98%

Compound: CC[C@@H]1CN(C(=O)NCC(F)(F)F)C[C@@H]1c1cnc2cnc3c(ccn3C(=O)Nc3cc4c(cc3NC(=O)OCc3ccc(B(O)O)cc3)n(C)c(=O)n4C)n12 [Example 32, (4-((((6-(8-((3R,4S)-4-ethyl-1-((2,2,2-trifluoroethyl)carbamoyl)pyrrolidin-3-yl)-3H-imidazo[1,2-a]pyrrolo[2,3-e]pyrazine-3-carboxamido)-1,3-dimethyl-2-oxo-2,3-dihydro-1H-benzo[d]imidazol-5-yl)carbamoyl)oxy)methyl)phenyl)boronic acid]
- NO Scavenging Activity (%) (Mean±SD) Without H2O2 ([2]; compound 1 µM): 6.42± 10.86%
- NO Scavenging Activity (%) (Mean±SD) With H2O2 ([2]; compound 1 µM): 4.05± 3.57%
- NO Scavenging Activity (%) (Mean±SD) Without H2O2 ([2]; compound 5 µM): 6.84± 5.21%
- NO Scavenging Activity (%) (Mean±SD) With H2O2 ([2]; compound 5 µM): 29.92 ±7.09%
- NO Scavenging Activity (%) (Mean±SD) Without H2O2 ([2]; compound 10 µM): 9.26± 5.51%
- NO Scavenging Activity (%) (Mean±SD) With H2O2 ([2]; compound 10 µM): 32.06 ±3.99%

Compound: CC1CC2C3CCC4=CC(=O)C=CC4(C)C3(F)C(O)CC2(C)C1(O)C(=O)COC(=O)Nc1ccccc1N (centres unmarked) [Example 33, 2-(9-fluoro-11,17-dihydroxy-10,13,16-trimethyl-3-oxo-6,7,8,9,10,11,12,13,14,15,16,17-dodecahydro-3H-cyclopenta[a]phenanthren-17-yl)-2-oxoethyl (2-aminophenyl) carbamate]
- NO Scavenging Activity (%) (Mean±SD) ([1]; compound 1 µM): 2.22± 4.76%
- NO Scavenging Activity (%) (Mean±SD) ([1]; compound 5 µM): 1.72± 4.28%
- NO Scavenging Activity (%) (Mean±SD) ([1]; compound 10 µM): 1.52± 10.22%

Compound: Cc1ccc(NC(=O)OCC(=O)C2(O)C(C)CC3C4CCC5=CC(=O)C=CC5(C)C4(F)C(O)CC32C)c(N)c1 (centres unmarked) [Example 34, 2-(9-fluoro-11,17-dihydroxy-10,13,16-trimethyl-3-oxo-6,7,8,9,10,11,12,13,14,15,16,17-dodecahydro-3H-cyclopenta[a]phenanthren-17-yl)-2-oxoethyl (2-amino-4-methylphenyl) carbamate]
- NO Scavenging Activity (%) (Mean±SD) ([1]; compound 10 µM): 0.76± 5.81%

Compound: N-(2-(3-(2-amino-5-hydroxyphenyl)-1-methylureido)ethyl)-4-(((1S,2R)-5-(2-cyanoacetyl)-2-methylcyclohexyl) (methyl)amino)-N-methyl-7H-pyrrolo[2,3-d]pyrimidine-7-carboxamide [Example 20]
- NO Scavenging Activity (%) (Mean±SD) (Raw 264.7 cell line; 10 µM, Raw 264.7, LPS 500 ng/mL): 59.5±0.11%

Compound: cyanocobalamin [Vitamin B12, reference compound]
- NO Scavenging Activity (%) (Mean±SD) ([1]; compound 1 µM): 3.18± 1.03%
- NO Scavenging Activity (%) (Mean±SD) ([1]; compound 5 µM): 8.98± 2.46%
- NO Scavenging Activity (%) (Mean±SD) ([1]; compound 10 µM): 12.37 ±3.73%
- NO Scavenging Activity (%) (Mean±SD) ([1]; compound 100 µM): 41.09 ±1.57%
- NO Scavenging Activity (%) (Mean±SD) ([1]; compound 1,000 µM): 99.48 ±0.95%
